Assay [1] concerns PMA-stimulated P90RSK(Ser380) phosphorylation in HepG2 cells. The assay can be described thus: Cellular P90RSK(Ser380) Phosphorylation Assay. The assay is classed as cell-based. The following applies: Homo sapiens, 1.5 h compound incubation, PMA stimulation, pP90RSK(Ser380) normalized to GAPDH, read-out: Cell Assay IC50. An outline of the steps: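 HepG2 cells were pretreated with compound (0.5% DMSO final) for 1.5 h, then stimulated with PMA 100 ng/mL for 30 min at 37° C. Fixed, permeabilized cells were immunostained for pP90RSK(Ser380) and GAPDH. The two-channel infrared fluorescence was read, and the phospho signal was normalized to GAPDH.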

For assay [2], the target named is human ERK-2 (Mitogen Activated Kinase 1) (Homo sapiens (Human), UniProt P28482). The assay can be described thus: ERK-2 Enzymatic Assay. Format: biochemical. As to conditions: 5 nM ERK-2, 25 μM ATP, Omnia peptide S/T17; read-out: ERK Inhibition IC50. A digest of the protocol: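 Recombinant N-terminal 6-His human ERK-2 (aa 8-360, E. coli) with fluorescent Omnia peptide S/T17 substrate, ambient temperature, read kinetically every 50 s for ~30 min (Ex 340/Em 495 nm). Linear rates converted to percent of control; IC50 from four-parameter fit.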
human ERK-2 (Mitogen Activated Kinase 1), sequence (P28482 8-360): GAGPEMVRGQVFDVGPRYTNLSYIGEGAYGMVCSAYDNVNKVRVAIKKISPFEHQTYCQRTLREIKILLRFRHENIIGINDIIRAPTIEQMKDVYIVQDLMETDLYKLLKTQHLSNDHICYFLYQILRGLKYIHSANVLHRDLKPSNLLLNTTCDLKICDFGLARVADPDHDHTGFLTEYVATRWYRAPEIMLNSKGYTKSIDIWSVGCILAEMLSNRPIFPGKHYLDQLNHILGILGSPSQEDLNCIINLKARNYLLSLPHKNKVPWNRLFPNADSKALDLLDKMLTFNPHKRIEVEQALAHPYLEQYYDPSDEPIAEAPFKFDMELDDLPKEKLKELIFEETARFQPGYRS

The test system of a further assay is HCT116 cells. Put plainly: Cell Proliferation/Viability Assay (Cell Titer-Blue, 72 h). As to conditions: Homo sapiens, HCT-116, 3-day (72-hour) incubation. The assay is classed as cell-based. The method, then:
The cytotoxic or cytostatic activity of formula I exemplary compounds was measured by: establishing a proliferating mammalian tumor cell line in a cell culture medium, adding a formula I compound, culturing the cells for a period from about 6 h to about 5 d; and measuring cell viability (Example 78). Cell-based in vitro assays were used to measure viability, i.e. proliferation (IC50), cytotoxicity (EC50).
Viable cells after a 3-day (72-hour) incubation with ERK compounds were quantified using the Cell Titer-Blue Cell Viability Assay from Promega.
Materials and Methods: HCT116 cells were plated in 96 well micro-plates at a density of 1,000 cells/well. The cells were allowed to attach to micro-plate overnight at 37° C./5% CO2. After overnight attachment, diluted compounds were then added to the cells at a final concentration of 0.5% DMSO. After 3 days (72 hours) at 37° C./5% CO2, the number of viable cells was determined using the Cell Titer-Blue Cell Viability Assay from Promega. Briefly, Cell Titer-Blue reagent were added to the cells and incubated for 1 hour. Fluorescense (560 nmexcitation/590 nmemission) was then read using a fluorescence micro-plate reader. Background from high concentration ERK-inhibited wells was subtracted. Representative date is in TABLE III (infra).

The results in this text go back to US9133187B2, “Serine/threonine kinase inhibitors” (ARRAY BIOPHARMA INC., priority 2011, dated 2015).

Each structure is given as a SMILES string. Where a name gives a salt, the structure may show the parent alone.

`C[C@@H](CO)Nc1ncc2c(n1)CN(C(=O)N[C@H](CCO)c1ccc(Cl)c(Cl)c1)CC2` [Compound I-33, N—((R)-1-(3,4-dichlorophenyl)-3-hydroxypropyl)-2-((S)-1-hydroxypropan-2-ylamino)-5,6-dihydropyrido[3,4-d]pyrimidine-7(8H)-carboxamide]: the IC50 – broadly, the concentration that inhibits the measured activity by half – in assay [1] was 55 nM; in assay [2], 1.1 nM; in the assay on HCT116 cells, 1900 nM.
Take `CC(C)Nc1ncc2c(n1)CN(C(=O)N[C@H](CCC#N)c1ccc(Cl)c(Cl)c1)CC2` [Compound I-104, (R)—N-(3-cyano-1-(3,4-dichlorophenyl)propyl)-2-(isopropylamino)-5,6-dihydropyrido[3,4-d]pyrimidine-7(8H)-carboxamide]: the concentration for half-maximal inhibition (IC50) in assay [1] is 58.6 nM; in assay [2], 2.2 nM; in the assay with HCT116 cells, 1600 nM.
Regarding `CC(C)Nc1ncc2c(n1)CN(C(=O)N[C@@H](c1ccc(C(F)(F)F)c(F)c1)[C@H]1CCCN1)CC2` [Compound I-15, N—((S)-(3-fluoro-4-(trifluoromethyl)phenyl)((R)-pyrrolidin-2-yl)methyl)-2-(isopropylamino)-5,6-dihydropyrido[3,4-d]pyrimidine-7(8H)-carboxamide], the IC50 in assay [1] stood at 37.3 nM; in assay [2], 1.1 nM; with HCT116 cells it was 625 nM.
For the molecule `CC(C)Nc1ncc2c(n1)CN(C(=O)N[C@@H]1CN(C)C[C@H]1c1ccc(C(F)(F)F)c(F)c1)CC2` [Compound I-120, N-((3S,4R)-4-(3-fluoro-4-(trifluoromethyl)phenyl)-1-methylpyrrolidin-3-yl)-2-(isopropylamino)-5,6-dihydropyrido[3,4-d]pyrimidine-7(8H)-carboxamide], the IC50 in assay [1] was determined as 37.8 nM; in assay [2], 1.6 nM; in the assay on HCT116 cells it was 557 nM.
`O=C(N[C@@H](c1ccc(Cl)c(Cl)c1)c1cnco1)N1CCc2cnc(NC3CCOCC3)nc2C1` [Compound I-1, (S)—N-((3,4-dichlorophenyl)(oxazol-5-yl)methyl)-2-(tetrahydro-2H-pyran-4-ylamino)-5,6-dihydropyrido[3,4-d]pyrimidine-7(8H)-carboxamide]: the half-inhibitory concentration (IC50) in assay [1] worked out at 4.55 nM; in assay [2] it was 1.1 nM; in the assay on HCT116 cells, 301 nM.
Take `C[C@@H](CO)Nc1cc2c(cn1)CCN(C(=O)N[C@H](C)c1ccc(Cl)c(Cl)c1)C2` [Compound I-149, N—((R)-1-(3,4-dichlorophenyl)ethyl)-7-((S)-1-hydroxypropan-2-ylamino)-3,4-dihydro-2,6-naphthyridine-2(1H)-carboxamide]: the half-inhibitory concentration (IC50) in assay [1] worked out at 75.7 nM; in assay [2], 3 nM; in the assay on HCT116 cells it was 4100 nM.
Consider `CN1C[C@@H](NC(=O)N2CCc3cnc(NC4CCOCC4)nc3C2)[C@H](c2ccc(Cl)c(F)c2)C1` [Compound I-124, N-((3S,4R)-4-(4-chloro-3-fluorophenyl)-1-methylpyrrolidin-3-yl)-2-(tetrahydro-2H-pyran-4-ylamino)-5,6-dihydropyrido[3,4-d]pyrimidine-7(8H)-carboxamide], for which the concentration for half-maximal inhibition (IC50) in assay [1] amounted to 5.95 nM; in assay [2] it was 2.3 nM; in the assay with HCT116 cells it was 47.5 nM.
Regarding `COCC[C@@H](NC(=O)N1CCc2cnc(NC3CCOCC3)nc2C1)c1ccc(Cl)c(Cl)c1` [Compound I-28, (R)—N-(1-(3,4-dichlorophenyl)-3-methoxypropyl)-2-(tetrahydro-2H-pyran-4-ylamino)-5,6-dihydropyrido[3,4-d]pyrimidine-7(8H)-carboxamide], the half-inhibitory concentration (IC50) turned out to be 32.8 nM in assay [1], 1.6 nM in assay [2] and 1900 nM in the assay on HCT116 cells.
In the case of `O=C(NCc1cc2ccccc2[nH]1)N1CCc2cnc(NC3CCOCC3)nc2C1` [Compound I-114, N-((1H-indol-2-yl)methyl)-2-(tetrahydro-2H-pyran-4-ylamino)-5,6-dihydropyrido[3,4-d]pyrimidine-7(8H)-carboxamide], the 50% inhibitory concentration (IC50) was found to be 25.4 nM in assay [1], 23.2 nM in assay [2] and 1500 nM in the assay on HCT116 cells.
Regarding `CC[C@@H](NC(=O)N1CCc2cnc(NC3CCOCC3)nc2C1)c1ccc(OC(F)F)cc1` [Compound I-27, (R)—N-(1-(4-(difluoromethoxy)phenyl)propyl)-2-(tetrahydro-2H-pyran-4-ylamino)-5,6-dihydropyrido[3,4-d]pyrimidine-7(8H)-carboxamide], the IC50 in assay [1] turned out to be 26.9 nM; in assay [2], 1.5 nM; with HCT116 cells, 628 nM.
Turning to `C[C@@H](CO)Nc1ncc2c(n1)CN(C(=O)NC1CNCC1c1ccc(C(F)(F)F)cc1)CC2` (mixture of isomers) [II-171, 2-(2-Hydroxy-1-methyl-ethylamino)-5,8-dihydro-6H-pyrido[3,4-d]pyrimidine-7-carboxylic acid [4-(4-trifluoromethyl-phenyl)-pyrrolidin-3-yl]-amide], the concentration for half-maximal inhibition (IC50) stood at 10000 nM in assay [1] and 0.7 nM in assay [2].
Consider `Cn1ccc(C(NC(=O)N2CCc3cnc(NC4CCOCC4)nc3C2)c2ccc(Cl)c(F)c2)n1` (stereo not shown) [Compound I-3, N-((4-chloro-3-fluorophenyl)(1-methyl-1H-pyrazol-3-yl)methyl)-2-(tetrahydro-2H-pyran-4-ylamino)-5,6-dihydropyrido[3,4-d]pyrimidine-7(8H)-carboxamide], for which the half-inhibitory concentration (IC50) in assay [1] was 101 nM; in assay [2] it was 3.8 nM.
For `CC[C@@H](NC(=O)N1CCc2cnc(N[C@H]3CC[C@H](O)C3)nc2C1)c1ccc(C(F)(F)F)c(F)c1` [Compound I-37, N—((R)-1-(3-fluoro-4-(trifluoromethyl)phenyl)propyl)-2-((1S,3S)-3-hydroxycyclopentylamino)-5,6-dihydropyrido[3,4-d]pyrimidine-7(8H)-carboxamide], the 50% inhibitory concentration (IC50) came out at 93 nM in assay [1] and 4.8 nM in assay [2].
For `CC(C)Nc1ncc2c(n1)CN(C(=O)CCc1ccc(Cl)cc1Cl)CC2` [II-24, 3-(2,4-Dichloro-phenyl)-1-(2-isopropylamino-5,8-dihydro-6H-pyrido[3,4-d]pyrimidin-7-yl)-propan-1-one] the same measures were 50000 nM and 244 nM.
Regarding `C[C@H](Cc1ccc(Cl)cc1)NC(=O)N1CCc2cnc(N[C@@H](C)CO)nc2C1` [II-136, 2-(2-Hydroxy-1-methyl-ethylamino)-5,8-dihydro-6H-pyrido[3,4-d]pyrimidine-7-carboxylic acid [2-(4-chloro-phenyl)-1-methyl-ethyl]-amide], the IC50 in assay [1] turned out to be 464 nM; in assay [2], 2.2 nM.
`CS(=O)(=O)CC[C@@H](NC(=O)N1CCc2cnc(NC3CCOCC3)nc2C1)c1ccc(Cl)c(Cl)c1` [Compound I-105, (R)—N-(1-(3,4-dichlorophenyl)-3-(methylsulfonyl)propyl)-2-(tetrahydro-2H-pyran-4-ylamino)-5,6-dihydropyrido[3,4-d]pyrimidine-7(8H)-carboxamide]: the half-inhibitory concentration (IC50) worked out at 101 nM in assay [1] and 2.6 nM in assay [2].
With `C[C@@H](CO)Nc1ncc2c(n1)CN(C(=O)NCc1nc3ccccc3o1)CC2` [II-151, 2-((S)-2-Hydroxy-1-methyl-ethylamino)-5,8-dihydro-6H-pyrido[3,4-d]pyrimidine-7-carboxylic acid (benzooxazol-2-ylmethyl)-amide], the half-maximal inhibitory concentration (IC50) amounted to 10000 nM in assay [1] and 52.8 nM in assay [2].
For the molecule `CCOc1cc(Nc2ncc3c(n2)CN(C(=O)N[C@H](C)c2ccc(Cl)c(Cl)c2)CC3)ccn1` [Compound I-35, (R)—N-(1-(3,4-dichlorophenyl)ethyl)-2-(2-ethoxypyridin-4-ylamino)-5,6-dihydropyrido[3,4-d]pyrimidine-7(8H)-carboxamide], the IC50 was found to be 91.3 nM in assay [1] and 5.6 nM in assay [2].
With `CC(C)Nc1ncc2c(n1)CN(C(=O)N[C@H](CNc1ncccn1)c1ccc(F)c(Cl)c1)CC2` [II-50, 2-Isopropylamino-5,8-dihydro-6H-pyrido[3,4-d]pyrimidine-7-carboxylic acid [(S)-1-(3-chloro-4-fluoro-phenyl)-2-(pyrimidin-2-ylamino)-ethyl]-amide], the IC50 was 1000 nM in assay [1] and 4.43 nM in assay [2].
Consider `CNC[C@@H](NC(=O)N1CCc2cnc(Nc3ccc(F)cc3)nc2C1)c1ccc(C(F)(F)F)c(F)c1` [Compound I-68, (S)—N-(1-(3-fluoro-4-(trifluoromethyl)phenyl)-2-(methylamino)ethyl)-2-(4-fluorophenylamino)-5,6-dihydropyrido[3,4-d]pyrimidine-7(8H)-carboxamide hydrochloride], for which the IC50 stood at 146 nM in assay [1] and 2.3 nM in assay [2].
Turning to `C[C@@H](NC(=O)N1CCc2cnc(NC3CC(=O)N(C)C3)nc2C1)c1ccc(Cl)c(F)c1` (stereo partly shown) [II-267, 2-(1-Methyl-5-oxo-pyrrolidin-3-ylamino)-5,8-dihydro-6H-pyrido[3,4-d]pyrimidine-7-carboxylic acid [1-(4-chloro-3-fluoro-phenyl)-ethyl]-amide], the IC50 stood at 28000 nM in assay [1] and 20.1 nM in assay [2].
